One may read the Ki as the dissociation constant of the complex between target and ligand, obtained from inhibition or displacement.

In one assay the target is T1, PKCα (Homo sapiens, UniProt P17252).
T1 construct: purchased Invitrogen
Kind of assay: cell-free competitive PKC binding assay with [3H]-phorbol dibutyrate. As to conditions: competition with [3H]-PDBu, recombinant human PKC isoform. On the procedure: (§1) Because a prerequisite for PKC pathway involvement is binding to PKC, compounds were initially evaluated for PKC affinity in a cell-free competitive binding assay with tritiated phorbol dibutyrate ([^3H]-PDBu). Assays were performed with representative members of both the conventional (PKCα) and novel (PKCδ) PKC families. Subsequently, compounds were assayed for PKC activation in living cells using an isoform translocation assay.
(§2) To a 50 mL polypropylene tube was added Tris-HCl (pH 7.4, 1 M, 1 mL), KCl (1 M, 2 mL), CaCl2) (0.1 M, 30 μL), and bovine serum albumin (BSA, 40 mg, Sigma-Aldrich). This mixture was diluted to 20 mL with deionized H2O and mixed gently. The buffer was stored on ice until use.
(§3) For every two assays, 3.5 mg phosphatidylserine (Avanti Polar Lipids, porcine, 25 mg/mL CHCl3 solution) was concentrated by removing chloroform under a stream of nitrogen followed by reduced pressure. The solid PS was suspended as vesicles in freshly prepared PKC binding assay buffer (3.5 mL) by sonicating six times for 30 sec, with a 30 sec rest between sonications (Branson Sonifier 250, power=2, 50% duty cycle). The resulting milky cloudy mixture (1 mg/mL) was stored on ice until use.
(§4) Assay PKC was prepared by dissolving a 4 μg aliquot of the indicated recombinant human PKC isoform (Invitrogen) into 11.6 mL of PKC binding assay buffer (this amount is sufficient for two assays). The diluted PKC was stored on ice for immediate use.
(§5) ^3H-PDBu (American Radiolabeled Chemicals, Inc.; 1 mCi/mL acetone solution; specific activity: 20 Ci/mmol) was diluted […] with DMSO. The resulting 500 nM stock solution was further diluted with DMSO to 30 nM.
(§6) Compound dilutions were prepared by serially diluting from a chosen “high” concentration by factors of 3 or 4.
(§7) To a polypropylene tube was added 3.3 mL of 1 mg/mL PS vesicles solution, 11 mL of PKC isoform solution, and 1.1 mL of 30 nM ^3H-PDBu solution were added. The resulting solution was vortexed to mix and stored on ice.
(§8) Materials: • Glass-fiber filters (Whatman GF/B) were prepared by soaking them in a solution of aqueous polyethyleneimine (10% by vol, 18 mL) in deionized water (600 mL) for ≥1 h. • 500 mL “rinsing buffer” of 20 mM Tris, pH 7.4 was cooled on ice for the duration of the incubation period and for the remainder of the assay.
(§9) Triplicate data points were obtained for each analog concentration. For each data point, 280 μL of “Master Mix” Solution and 20 μL of analog compound at a specified concentration were added to a polypropylene tube. […] Maximal ^3H-PDBu binding was assessed in triplicate by substitution of the analog compound with 20 μL DMSO. The solutions were vortexed to mix, incubated at 37° C. for 10 min, and incubated on ice for at least 30 min prior to filtration. Using a Brandel Harvester, the assay contents from each polypropylene tube were vacuum-filtered through polyethylenimine-soaked filters, washing with rinsing buffer (3×) and drying first under vacuum for 5 min and then under ambient conditions for ≥2 h. The resulting filters had circular perforations for each data point, which were removed with forceps and placed in a scintillation vial. Scintillation vials were filled with Bio-Safe II scintillation fluid (5 mL) and measured for radioactivity using a Beckman LS 6000SC scintillation counter. Counts per minute (cpm) were averaged for each triplicate dilution. The data were plotted—cpm vs. log(concentration)—using Prism® by GraphPad Software and an IC50 was determined using that program's built-in one-site competition least squares regression function. Ki values were calculated using the equation: Ki=IC50/(1+([3H−PDBu]/Kd)). The Kd of ^3H-PDBu for PKC isoforms was measured separately via saturation binding experiments under identical conditions.

The target of a further assay is T2, PKCδ (Homo sapiens, UniProt Q05655).
T2 construct: purchased Invitrogen
The assay is described as above. Particulars: competition with [3H]-PDBu, recombinant human PKC isoform. On the procedure: as §1, §2, §3, §4, §5, §6, §7, §8
Triplicate data points were obtained for each analog concentration. For each data point, 280 μL of “Master Mix” Solution and 20 μL of analog compound at a specified concentration were added to a polypropylene tube. […] Maximal ^3H-PDBu binding was assessed in triplicate by substitution of the analog compound with 20 μL DMSO. The solutions were vortexed to mix, incubated at 37° C. for 10 min, and incubated on ice for at least 30 min prior to filtration. Using a Brandel Harvester, the assay contents from each polypropylene tube were vacuum-filtered through polyethylenimine-soaked filters, washing with rinsing buffer (3×) and drying first under vacuum for 5 min and then under ambient conditions for ≥2 h. The resulting filters had circular perforations for each data point, which were removed with forceps and placed in a scintillation vial. Scintillation vials were filled with Bio-Safe II scintillation fluid (5 mL) and measured for radioactivity using a Beckman LS 6000SC scintillation counter. Counts per minute (cpm) were averaged for each triplicate dilution. The data were plotted—cpm vs. log(concentration)—using Prism® by GraphPad Software and an IC50 was determined using that program's built-in one-site competition least squares regression function. […] The Kd of ^3H-PDBu for PKC isoforms was measured separately via saturation binding experiments under identical conditions.

In assay [1] the test system is CD22 surface expression in JB cells. Nature of the assay: CD22 surface expression assay, AIDS-NHL cell line JB. Particulars: 1 nM or 10 nM, 48 hours.
Method: (§10) AIDS-NHL cell lines were incubated in IF10 medium, consisting of IMDM medium (Life technologies) containing 10% fetal bovine serum (FBS, Omega Scientific), 100 units/mL of penicillin, and 100 μg/ml of streptomycin (Invitrogen). Cells were incubated at 37° C. in 5% CO2.
(§11) Cells were exposed to compound for the either 24 or 48 h before staining and flow cytometric analysis of receptor levels.
(§12) Cells in each well were washed with phosphate buffered saline (PBS) containing 2% FBS, then cells were centrifuged for 9 min at 233 xg and resuspended in 50 μL of a 1:1 dilution of phosphate buffered saline (PBS): Human AB serum (Sigma). […] Stained samples were stored at 4° C. Flow cytometry samples were analyzed using a FACSCelesta (BD Biosciences) flow cytometer and data were analyzed using FlowJo software (version 10).
(§13) Panel C: JB cells were incubated with 1 nM (left hand bars) or 10 nM (right hand bars) of compound for 48 hours. CD22 surface expression was then assayed by flow cytometry (n=6 biological replicates; data presented as mean values ±SE). Panel D: 2F7 cells were incubated with 1 nM (left hand bars) or 10 nM (right hand bars) of compound for 48 hours. CD22 surface expression was then assayed by flow cytometry (n=6 biological replicates; data presented as mean values ±SE).
Assay [2] concerns CD22 surface expression in 2F7 cells. Kind of assay: CD22 surface expression assay, AIDS-NHL cell line 2F7. As to conditions: 1 nM or 10 nM, 48 hours.
Method: as §10, §11, §12, §13
A further assay concerns PKC. Nature of the assay: cell-free PKC binding assay, isoform not given. Also on record: species or system human. On the procedure:
as §1, §4, §9

T2 sequence (Q05655 whole entry): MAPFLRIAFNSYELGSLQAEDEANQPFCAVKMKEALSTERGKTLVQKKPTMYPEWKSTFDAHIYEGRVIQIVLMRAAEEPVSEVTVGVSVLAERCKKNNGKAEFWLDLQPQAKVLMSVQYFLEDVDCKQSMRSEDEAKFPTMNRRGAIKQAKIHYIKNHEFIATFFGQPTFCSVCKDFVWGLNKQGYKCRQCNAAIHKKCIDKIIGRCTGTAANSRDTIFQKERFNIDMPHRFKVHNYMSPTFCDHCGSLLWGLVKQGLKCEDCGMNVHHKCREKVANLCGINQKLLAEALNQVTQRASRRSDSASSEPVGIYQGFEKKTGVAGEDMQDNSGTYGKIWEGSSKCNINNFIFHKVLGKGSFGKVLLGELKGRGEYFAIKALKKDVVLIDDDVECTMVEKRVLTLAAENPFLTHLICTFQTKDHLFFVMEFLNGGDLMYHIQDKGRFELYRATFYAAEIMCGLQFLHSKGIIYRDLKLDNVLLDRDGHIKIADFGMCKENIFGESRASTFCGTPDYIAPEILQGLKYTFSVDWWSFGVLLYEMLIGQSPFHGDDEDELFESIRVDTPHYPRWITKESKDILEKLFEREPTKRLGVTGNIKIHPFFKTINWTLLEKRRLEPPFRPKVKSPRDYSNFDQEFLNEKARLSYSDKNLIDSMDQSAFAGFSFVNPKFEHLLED

Take `CCCC=CC=CC(=O)OC1C(=CC(=O)OC)CC2CC(C(C)O)OC(=O)CC(O)CC3CC(OC(C)=O)C(C)(C)C(O)(CC4CC(=CC(=O)OCC)CC(C=CC(C)(C)C1(O)O2)O4)O3` (centres unmarked) [SUW218]: the inhibition constant Ki was determined as 7.1 nM on PKCα and 6.6 nM on PKCδ.
As for `C=CCOC(=O)/C=C1/C[C@H]2C[C@]3(O)O[C@H](C[C@@H](O)CC(=O)O[C@@H]([C@@H](C)O)C[C@@H]4C/C(=C\C(=O)OC)[C@H](OC(=O)/C=C/C=C/CCC)[C@@](O)(O4)C(C)(C)/C=C/[C@@H](C1)O2)C[C@H](OC(C)=O)C3(C)C` [SUW229], the Ki is 1.8 nM on PKCα and 1.2 nM on PKCδ. The “upregulated CD22 surface expression” value in assay [1] and in assay [2] was roughly 2 fold each time.
`CCCCCCCC(=O)O[C@H]1/C(=C/C(=O)OC)C[C@H]2C[C@H]([C@@H](C)O)OC(=O)C[C@H](O)C[C@@H]3C[C@H](OC(C)=O)C(C)(C)[C@](O)(C[C@@H]4C[C@@H](C)C[C@H](/C=C/C(C)(C)[C@]1(O)O2)O4)O3` [SUW226]: the Ki was found to be 5.8 nM on PKCα and 6.6 nM at PKCδ.
For `CCC/C=C/C=C/C(=O)O[C@H]1/C(=C/C(=O)OC)C[C@H]2C[C@H]([C@@H](C)O)OC(=O)C[C@H](O)C[C@@H]3C[C@H](OC(C)=O)C(C)(C)[C@](O)(C[C@@H]4C[C@H](OC(C)=O)C[C@H](/C=C/C(C)(C)[C@]1(O)O2)O4)O3` [SUW206], in that order: 1 nM and 1.3 nM.
On the same counts, the results for `CCC/C=C/C=C/C(=O)O[C@H]1/C(=C/C(=O)OC)C[C@H]2C[C@H]([C@@H](C)O)OC(=O)C[C@H](O)C[C@@H]3C[C@H](OC(C)=O)C(C)(C)[C@](O)(C[C@@H]4C[C@@H](OC(C)=O)C[C@H](/C=C/C(C)(C)[C@]1(O)O2)O4)O3` [SUW207] are 2 nM and 5.4 nM.
With `CCCCCC#CC(=O)O[C@H]1/C(=C/C(=O)OC)C[C@H]2C[C@H]([C@@H](C)O)OC(=O)C[C@H](O)C[C@@H]3C[C@H](OC(C)=O)C(C)(C)[C@](O)(C[C@@H]4C[C@@](O)(CO)C[C@H](/C=C/C(C)(C)[C@]1(O)O2)O4)O3` [SUW203], the Ki at PKCα came to 1 nM; on PKCδ it was 4.1 nM. Besides, the “binding affinity to PKC, in words” value in the assay on PKC is “single-digit nanomolar affinity”.
Consider `CCCC=CC=CC(=O)OC1C(=CC(=O)OC)CC2CC(C(C)O)OC(=O)CC(O)CC3CC(OC(C)=O)C(C)(C)C(O)(CC4CC(=CC(=O)OCC)CC(C=CC(C)(C)C1(O)O2)O4)O3` (centres unmarked) [SUW217], for which the Ki on PKCα was 9.2 nM; on PKCδ, 9.4 nM.
